The assay concerns the target human CB2 (Homo sapiens (Human), UniProt P34972). Kind of assay: Radioligand binding assay, human CB2 (CNR2) membranes, [3H]-CP-55,940. Conditions: HEK cell membranes, [3H]-CP-55,940 radioligand. How it is done:
Radioligand Binding Assay
The affinity of the compounds of the invention for cannabinoid CB1 receptors was determined using recommended amounts of membrane preparations (PerkinElmer) of human embryonic kidney (HEK) cells expressing the human CNR1 or CNR2 receptors in conjunction with 1.5 or 2.6 nM [3H]-CP-55,940 (Perkin Elmer) as radioligand, respectively. Binding was performed in binding buffer (50 mM Tris, 5 mM MgCl2, 2.5 mM EDTA, and 0.5% (wt/vol) fatty acid free BSA, pH 7.4 for CB1 receptor and 50 mM Tris, 5 mM MgCl2, 2.5 mM EGTA, and 0.1% (wt/vol) fatty acid free BSA, pH 7.4 for CB2 receptor) in a total volume of 0.2 ml for 1 h at 30° C. shaking. The reaction was terminated by rapid filtration through microfiltration plates coated with 0.5% polyethylenimine (UniFilter GF/B filter plate; Packard). Bound radioactivity was analyzed for Ki using nonlinear regression analysis (Activity Base, ID Business Solution, Limited), with the Kd values for [3H]CP55,940 determined from saturation experiments. The compounds of formula (I) show an excellent affinity for the CB2 receptor.
The compounds according to formula (I) have an activity in the above assay (Ki) between 0.5 nM and 10 μM. Particular compounds of formula (I) have an activity in the above assay (Ki) between 0.5 nM and 3 μM. Other particular compounds of formula (I) have an activity in the above assay (Ki) between 0.5 nM and 100 nM.

Chain of human CB2 (P34972 whole entry): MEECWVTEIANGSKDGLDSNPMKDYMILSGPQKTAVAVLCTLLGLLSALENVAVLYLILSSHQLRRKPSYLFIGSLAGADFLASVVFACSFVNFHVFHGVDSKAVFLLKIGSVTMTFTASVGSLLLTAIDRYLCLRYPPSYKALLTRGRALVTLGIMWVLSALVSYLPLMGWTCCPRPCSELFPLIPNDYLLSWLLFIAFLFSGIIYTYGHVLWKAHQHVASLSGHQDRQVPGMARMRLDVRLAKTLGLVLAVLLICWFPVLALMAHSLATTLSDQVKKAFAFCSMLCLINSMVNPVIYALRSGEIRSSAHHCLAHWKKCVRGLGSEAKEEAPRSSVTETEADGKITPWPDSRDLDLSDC

`CCOC(=O)C(CC)(CC)NC(=O)c1ccc(N2CC(F)C2)c(OCC2CC2)n1` [Example 4, Ethyl 2-{[6-(cyclopropylmethoxy)-5-(3-fluoroazetidin-1-yl)pyridine-2-carbonyl]amino}-2-ethylbutanoate] returned a Ki of 6 nM. The value for `CCOC(=O)C(CC)(CC)NC(=O)c1ccc(N2CC(OCCCF)C2)c(OCC2CC2)n1` [Example 1, Ethyl 2-({6-(cyclopropylmethoxy)-5-[3-(3-fluoropropoxy)azetidin-1-yl]pyridine-2-carbonyl}amino)-2-ethylbutanoate] was 19 nM. With `CCOC(=O)C(CC)(CC)NC(=O)c1ccc(N2CC(OCCF)C2)c(OCC2CC2)n1` [Example 2, Ethyl 2-({6-(cyclopropylmethoxy)-5-[3-(2-fluoroethoxy)azetidin-1-yl]pyridine-2-carbonyl}amino)-2-ethylbutanoate] the figure was 5 nM; with `NC(=O)CC1(NC(=O)c2ccc(N3CC(OCCF)C3)c(OCC3CC3)n2)COC1` [Example 5, N-[3-(2-Amino-2-oxoethyl)oxetan-3-yl]-6-(cyclopropylmethoxy)-5-[3-(2-fluoroethoxy)azetidin-1-yl]pyridine-2-carboxamide], 447 nM.

Source of the values: patent publication US12180196B2, “Azetidine-substituted pyridine and pyrazine compounds as inhibitors of cannabinoid receptor 2” (HOFFMANN-LA ROCHE INC., priority 2018, dated 2024).
